Patent publication US7868204B2, “Inhibitors of histone deacetylase” (MethylGene Inc., priority 2001, dated 2011)
Like-named read-outs stand apart in the source and are kept apart here.

Assays:
[1] = tested on: HCT116 cells; assay: MTT assay; type: cell-based; conditions: Homo sapiens, HCT116 cells, 72 hours
How it was run: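 Read-out: MTT (0.5 mg/ml final, 4 h) after solubilization in 50% DMF/20% SDS, pH 4.7, with OD translated into cell number via the line's growth curve. Compound treatment lasted 72 h at 37 °C in 5% CO2, starting a day after plating.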

[2] = tested on: acetylated histone H-4 in T24 human bladder cancer cells; assay: Histone H4 acetylation in whole cells by immunoblots; type: cell-based; conditions: 16 h
Protocol: T24 human bladder cancer cells growing in culture were incubated with HDAC inhibitors for 16 h. […] of total histone protein was loaded onto SDS/PAGE and transferred to nitrocellulose membranes. Membranes were probed with polyclonal antibodies specific for acetylated histone H-4 (Upstate Biotech Inc.), followed by horse radish peroxidase conjugated secondary antibodies (Sigma). Enhanced Chemiluminescence (ECL) (Amersham) detection was performed using Kodak films (Eastman Kodak). Acetylated H-4 signal was quantified by densitometry.

[3] = target: T1, cloned recombinant human HDAC-1 (Homo sapiens, UniProt Q13547); assay: Human HDAC-1 enzyme inhibition, Assay 1 ([3H]-acetylated histone substrate, scintillation counting); type: biochemical
T1 construct: made in house; host or cells: Baculovirus insect cell expression system
T1 sequence (Q13547 whole entry): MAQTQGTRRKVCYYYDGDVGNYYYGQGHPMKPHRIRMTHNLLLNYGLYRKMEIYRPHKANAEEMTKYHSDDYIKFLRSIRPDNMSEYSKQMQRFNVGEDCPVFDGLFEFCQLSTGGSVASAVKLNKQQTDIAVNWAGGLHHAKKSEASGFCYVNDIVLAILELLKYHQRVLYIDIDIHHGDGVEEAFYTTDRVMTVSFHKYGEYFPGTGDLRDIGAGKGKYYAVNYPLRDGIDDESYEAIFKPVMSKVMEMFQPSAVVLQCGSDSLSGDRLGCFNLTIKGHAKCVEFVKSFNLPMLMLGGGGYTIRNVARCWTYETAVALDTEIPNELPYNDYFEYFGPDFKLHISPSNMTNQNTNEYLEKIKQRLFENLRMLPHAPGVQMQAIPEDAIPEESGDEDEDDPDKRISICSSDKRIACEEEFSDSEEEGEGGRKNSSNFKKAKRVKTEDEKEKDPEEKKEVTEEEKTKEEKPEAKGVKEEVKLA
How it was run: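 Activity read as [3H]-acetic acid liberated from labeled substrate, ethyl acetate-extracted and scintillation-counted. Compounds preincubated 30 min at 4° C. with baculovirus-expressed, purified human HDAC-1. Dose-response curves give IC50 as concentration producing fifty percent of maximal inhibition.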

[4] = T-24, Table 5c, read-out: H4Ac (T24) EC50
[5] = T-24, Table 5E, read-out: H4 Ac (T24) EC50
[6] = T-24, Table 5F, read-out: H4 Ac (T24) EC50
[7] = Table 5d, read-out: HDAC-1 IC50
[8] = Table 5F, read-out: Human HDAC-1 IC50

IC50 ([1]; HCT-116, 72 h, Table 5F)	IC50 [3, 7]	IC50 ([1]; HCT-116, Table 5d)	Structure (SMILES)	other results
–	–	–	Nc1ccccc1NC(=O)/C=C/c1ccc(NCc2ccncc2)nc1 [Cpd 91]	IC50 ([1]; HCT-116, 72 h, Table 5c): 7 µM; EC50 [2, 4]: 5 µM
–	–	–	Nc1ccccc1NC(=O)/C=C/c1ccc(NCc2ccc(F)cc2)nc1 [Cpd 92, N-(2-aminophenyl)-3-[6-(4-fluoro-benzylamino)-pyridin-3-yl]-acrylamide]	IC50 ([1]; HCT-116, 72 h, Table 5c): 2 µM; EC50 [2, 4]: 3 µM
–	–	–	Nc1ccccc1NC(=O)/C=C/c1ccc(NCc2ccccc2)nc1 [Cpd 93, N-(2-aminophenyl)-3-(6-benzylamino-pyridin-3-yl)-acrylamide]	IC50 ([1]; HCT-116, 72 h, Table 5c): 1 µM; EC50 [2, 4]: 5 µM
–	–	–	Nc1ccccc1NC(=O)/C=C/c1ccc(NCCCc2ccccc2)nc1 [Cpd 94, N-(2-aminophenyl)-3-[6-(3-phenyl-propylamino)-pyridin-3-yl]-acrylamide]	IC50 ([1]; HCT-116, 72 h, Table 5c): 2 µM; EC50 [2, 4]: 5 µM
–	–	–	CN(C)c1ccc(CNc2ccc(/C=C/C(=O)Nc3ccccc3N)cn2)cc1 [Cpd 96, N-(2-aminophenyl)-3-[6-(4-dimethylamino-benzylamino)-pyridin-3-yl]-acrylamide]	IC50 ([1]; HCT-116, 72 h, Table 5c): 3 µM; EC50 [2, 4]: 25 µM
–	–	–	Nc1ccccc1NC(=O)/C=C/c1ccc(NCc2ccc(OC(F)(F)F)cc2)nc1 [Cpd 99, N-(2-aminophenyl)-3-[6-(4-trifluoromethoxy-benzylamino)-pyridin-3-yl]-acrylamide]	IC50 ([1]; HCT-116, 72 h, Table 5c): 5 µM; EC50 [2, 4]: 10 µM
–	–	–	COc1cc(N(C)Cc2ccc(/C=C/C(=O)Nc3ccccc3N)cc2)cc(OC)c1OC [Cpd 108]	IC50 ([1]; HCT-116, 72 h, Table 5c): 5 µM; EC50 [2, 4]: 5 µM
–	–	–	Nc1ccccc1NC(=O)/C=C/c1cnc(NCc2ccc([N+](=O)[O-])cc2)nc1 [Cpd 113, N-(2-amino-phenyl)-3-[2-(4-nitro-benzylamino)-pyrimidin-5-yl]-acrylamide]	IC50 ([1]; HCT-116, 72 h, Table 5c): 0.3 µM; EC50 [2, 4]: 5 µM
–	–	–	COc1cc(CNc2ccc(/C=C/C(=O)Nc3ccccc3N)cn2)cc(OC)c1OC [Cpd 116, N-(2-aminophenyl)-3-[6-(3,4,5-trimethoxy-benzylamino)-pyridin-3-yl]-acrylamide]	IC50 ([1]; HCT-116, 72 h, Table 5c): 2 µM; EC50 [2, 4]: 5 µM
–	–	–	COc1cc(NCc2ccc(C(=O)Nc3ccccc3N)cc2)cc(OC)c1OC [Cpd 164]	IC50 ([1]; HCT-116, 72 h, Table 5E): 2 µM; EC50 [2, 5]: 3 µM
–	–	–	COc1cc(CNc2ccc(C(=O)Nc3ccccc3N)cn2)cc(OC)c1OC [Cpd 176]	IC50 ([1]; HCT-116, 72 h, Table 5E): 1 µM; EC50 [2, 5]: 3 µM
2 µM	–	–	COc1cc(CNc2ccc(C(=O)Nc3ccccc3N)cc2)cc(OC)c1OC [Cpd 412, N-(2-Amino-phenyl)-4-(3,4,5trimethoxybenzylamino)-benzamide]	EC50 [2, 6]: 3 µM
0.4 µM	–	–	COc1ccc(NCc2ccc(C(=O)Nc3ccccc3N)cc2)cc1OC [Cpd 424b]	EC50 [2, 6]: 1 µM
2 µM	–	–	COc1ccc(NCc2ccc(C(=O)Nc3ccccc3N)cc2)cc1 [Cpd 427, N-(2-Amino-phenyl)-4-[(4-methoxy-phenylamino)-methyl]-benzamide]	EC50 [2, 6]: 1 µM
–	4 µM	12 µM	Nc1ccccc1NC(=O)/C=C/c1ccc(CNc2cccc(Cl)c2)cc1 [Cpd 553, N-(2-Amino-phenyl)-3-{4-[(3-chloro-phenylamino)-methyl]-phenyl}-acrylamide]	–
–	15 µM	12 µM	Nc1ccccc1NC(=O)/C=C/c1ccc(CNc2ccc(F)cc2)cc1 [Cpd 554, N-(2-Amino-phenyl)-3-{4-[(4-fluoro-phenylamino)-methyl]-phenyl}-acrylamide]	–
–	14 µM	7 µM	CSc1cccc(NCc2ccc(/C=C/C(=O)Nc3ccccc3N)cc2)c1 [Cpd 555, N-(2-Amino-phenyl)-3-{4-[(3-methylsulfanyl-phenylamino)-methyl]-phenyl}-acrylamide]	–
–	4 µM	6 µM	Nc1ccccc1NC(=O)/C=C/c1ccc(CNc2ccc(Br)cn2)cc1 [Cpd 557, N-(2-Amino-phenyl)-3-{4-[(5-bromo-pyridin-2-ylamino)-methyl]-phenyl}acrylamide]	–
–	7 µM	10 µM	Nc1ccccc1NC(=O)/C=C/c1ccc(CNc2cccc3ccccc23)cc1 [Cpd 558, N-(2-Amino-phenyl)-3-[4-(naphthalen-1-ylaminomethyl)-phenyl]-acrylamide]	–
–	4 µM	11 µM	Nc1ccccc1NC(=O)/C=C/c1ccc(CNc2cccc(F)c2)cc1 [Cpd 559, N-(2-Amino-phenyl)-3-{4-[(3-fluoro-phenylamino)-methyl]-phenyl}-acrylamide]	–
–	21 µM	6 µM	COc1cc(/C=C/C(=O)Nc2ccccc2N)cc(OC)c1CNc1cc(OC)c(OC)c(OC)c1 [Cpd 560]	–

IC50 ([1]; HCT-116, 72 h, Table 5F)	IC50 [3, 7]	IC50 ([1]; HCT-116, Table 5d)	Structure (SMILES)	other results
–	> 25 µM	> 25 µM	COc1cc(NCc2ccc(/C=C/C(=O)Nc3cccc(O)c3N)cc2)cc(OC)c1OC [Cpd 561]	–
–	5 µM	5 µM	COc1ccc(NCc2ccc(/C=C/C(=O)Nc3ccccc3N)cc2)c(OC)c1OC [Cpd 562, N-(2-Amino-phenyl)-3-[4-[(2,3,4-trimethoxy-phenylamino)-methyl]-phenyl}-acrylamide]	–
–	24 µM	6 µM	COc1ccc(NCc2ccc(/C=C/C(=O)Nc3ccccc3N)cc2)cc1CNc1cc(OC)c(OC)c(OC)c1 [Cpd 563, N-(2-Amino-phenyl)-3-[4-([4-methoxy-3-[(3,4,5-trimethoxy-phenylamino)-methyl]-phenylamino}-methyl)-phenyl]-acrylamide]	–
–	> 25 µM	> 25 µM	COc1cc(NCc2ccc(/C=C/C(=O)Nc3cccc(N)c3N)cc2)cc(OC)c1OC [Cpd 564]	–
–	5 µM	17 µM	CSc1ccc(NCc2ccc(/C=C/C(=O)Nc3ccccc3N)cc2)cc1F [Cpd 565, N-(2-Amino-phenyl)-3-{4-[(3-fluoro4-methylsulfanyl-phenylamino)-methyl]-phenyl}-acrylamide]	–
–	3 µM	16 µM	CSc1ccc(NCc2ccc(/C=C/C(=O)Nc3ccccc3N)cc2)cc1C(F)(F)F [Cpd 566, N-(2-Amino-phenyl)-3-{4-[(4-methylsulfanyl-3-trifluoromethyl-phenylamino)-methyl]-phenyl]-acrylamide]	–
–	13 µM	3 µM	COc1cc(NCc2ccc(/C=C/C(=O)Nc3ccccc3N)cc2[N+](=O)[O-])cc(OC)c1OC [Cpd 567]	–
–	> 25 µM	39 µM	COc1cc(NCc2ccc(/C=C/C(=O)Nc3ccccc3N)cc2N)cc(OC)c1OC [Cpd 568]	–
–	18 µM	6 µM	COc1ccc(-c2ccc(/C=C/C(=O)Nc3ccccc3N)cn2)cc1OC [Cpd 569]	–
11 µM	–	–	COc1cc(NCc2ccc(C(=O)Nc3ccccc3N)cc2)cc(OC)c1OC [Cpd 571]	IC50 [3, 8]: 4 µM
6 µM	–	–	COc1ccc(CNc2ccc(C3CC3C(=O)Nc3ccccc3N)cn2)cc1 (stereo not shown) [Cpd 576]	IC50 [3, 8]: 5 µM
4 µM	–	–	CCN1C(=O)C(Cc2ccc(C(=O)Nc3ccccc3N)cc2)Oc2ccccc21 (stereo not shown) [compound 269, N-(2-Amino-phenyl)-4-(4-ethyl-3-oxo-3,4-dihydro-2H-benzo[1,4]oxazin-2-ylmethyl)-benzamide]	IC50 [3, 8]: 9 µM
5 µM	–	–	Cc1nc(Cc2ccc(C(=O)Nc3ccccc3N)cc2)no1 [compound 284, N-(2-Amino-phenyl)-4-(5-methyl-[1,2,4]oxadiazol-3-ylmethyl)-benzamide]	IC50 [3, 8]: 3 µM
2 µM	–	–	Cc1cc(C)n(-c2ccc(C(=O)Nc3ccccc3N)cc2)n1 [compound 286, N-(2-Amino-phenyl)-4-(3,5-dimethyl-pyrazol-1-yl)-benzamide]	IC50 [3, 8]: 5 µM
5 µM	–	–	COc1cc(C2C=CC(c3ccc(C(=O)Nc4ccccc4N)cc3)O2)cc(OC)c1OC (stereo not shown) [compound 289, N-(2-Amino-phenyl)-4-[5-(3,4,5-trimethoxy-phenyl)-2,5-dihydro-furan-2-yl]-benzamide]	IC50 [3, 8]: 17 µM
3 µM	–	–	COc1cc(C2CCC(c3ccc(C(=O)Nc4ccccc4N)cc3)O2)cc(OC)c1OC (stereo not shown) [compound 290, N-(2-Amino-phenyl)-4-[5-(3,4,5-trimethoxy-phenyl)-tetrahydro-furan-2-yl]-benzamide]	IC50 [3, 8]: 11 µM
7 µM	–	–	COc1cc(N2C(=O)OCC2c2ccc(C(=O)Nc3ccccc3N)cc2)cc(OC)c1OC (stereo not shown) [compound 296, N-(2-Amino-phenyl)-4-[2-oxo-3-(3,4,5-trimethoxy-phenyl)-oxazolidin-4-yl]-benzamide]	IC50 [3, 8]: 20 µM
3 µM	–	–	COc1ccc(C2=NC(c3ccc(C(=O)Nc4ccccc4N)cc3)CO2)cc1OC (stereo not shown) [compound 301, N-(2-Amino-phenyl)-4-[2-(3,4-dimethoxy-phenyl)-4,5-dihydro-oxazol-4-yl]-benzamide]	IC50 [3, 8]: 3 µM
2 µM	–	–	COc1ccc(C2=NCC(c3ccc(C(=O)Nc4ccccc4N)cc3)O2)cc1OC (stereo not shown) [compound 305, N-(2-Amino-phenyl)-4-[2-(3,4-dimethoxy-phenyl)-4,5-dihydro-oxazol-5-yl]-benzamide]	IC50 [3, 8]: 4 µM
8 µM	–	–	Nc1ccccc1NC(=O)c1ccc(Sc2ccc3ccccc3n2)nc1 [compound 319, N-(2-Amino-phenyl)-6-(quinolin-2-ylsulfanyl)-nicotinamide]	IC50 [3, 8]: 4 µM
